Test results reported in ChEMBL document CHEMBL1201862, “PubChem BioAssay data set” (2004).
Activity calls are given as the source filed them.

Tests used:
[1] = target: T1, Tyrosine-protein phosphatase non-receptor type 12 (Homo sapiens, UniProt Q05209); test: SAR Selectivity Analysis of small molecule inhibitors of PEST using pCAP in a fluorescence assay. [Related pubchem assays (depositor defined):AID1779, AID1784, AID2135]; format: functional
T1 sequence (Q05209 whole entry): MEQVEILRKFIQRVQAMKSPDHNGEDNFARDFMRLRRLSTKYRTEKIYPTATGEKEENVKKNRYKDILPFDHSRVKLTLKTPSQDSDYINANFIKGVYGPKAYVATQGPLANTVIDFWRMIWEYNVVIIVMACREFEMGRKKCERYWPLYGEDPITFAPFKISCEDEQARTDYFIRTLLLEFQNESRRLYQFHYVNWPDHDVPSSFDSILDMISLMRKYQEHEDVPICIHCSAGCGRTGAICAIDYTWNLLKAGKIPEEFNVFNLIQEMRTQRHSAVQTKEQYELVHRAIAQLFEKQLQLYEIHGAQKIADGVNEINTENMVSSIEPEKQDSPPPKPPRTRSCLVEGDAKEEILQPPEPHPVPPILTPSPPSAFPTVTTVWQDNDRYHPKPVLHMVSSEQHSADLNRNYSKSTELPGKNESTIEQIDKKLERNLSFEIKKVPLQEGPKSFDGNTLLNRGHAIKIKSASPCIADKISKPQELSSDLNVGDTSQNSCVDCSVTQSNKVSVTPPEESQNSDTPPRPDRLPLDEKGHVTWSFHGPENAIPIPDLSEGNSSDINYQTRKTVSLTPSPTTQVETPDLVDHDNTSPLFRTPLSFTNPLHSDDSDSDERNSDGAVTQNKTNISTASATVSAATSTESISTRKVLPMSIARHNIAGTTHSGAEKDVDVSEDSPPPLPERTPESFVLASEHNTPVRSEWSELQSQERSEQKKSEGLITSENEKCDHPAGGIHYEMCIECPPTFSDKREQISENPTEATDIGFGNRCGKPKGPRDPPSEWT

[2] = target: T2, G-protein coupled receptor 35 (Homo sapiens, UniProt Q9HC97); test: GPR35 antagonists blocking zaprinast-driven arrestin recruitment, primary screen, imaging, U2OS, beta-arrestin-GFP, zaprinast agonist (AID 2058); format: functional;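 further: antagonist potency meaning inhibition of agonist-induced arrestin redistribution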
T2 sequence (Q9HC97 whole entry): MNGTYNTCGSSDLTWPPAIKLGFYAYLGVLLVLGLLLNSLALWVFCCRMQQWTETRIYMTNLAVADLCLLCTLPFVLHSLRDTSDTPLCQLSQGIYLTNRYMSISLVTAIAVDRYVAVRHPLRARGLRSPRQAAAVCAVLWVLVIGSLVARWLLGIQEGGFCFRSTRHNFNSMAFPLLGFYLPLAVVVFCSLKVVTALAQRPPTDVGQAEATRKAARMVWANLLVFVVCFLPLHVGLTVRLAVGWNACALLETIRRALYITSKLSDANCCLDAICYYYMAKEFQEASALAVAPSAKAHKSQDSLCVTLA

[3] = target: T3, Tyrosine-protein phosphatase non-receptor type 22 (Homo sapiens, UniProt Q9Y2R2); test: SAR LYP1 Fluorescent Assay using OMFP substrate for In Vitro dose response studies - Set 3. [Related pubchem assays (depositor defined):AID1779, AID1784, AID2140, AID2686]; format: functional
T3 sequence (Q9Y2R2 whole entry): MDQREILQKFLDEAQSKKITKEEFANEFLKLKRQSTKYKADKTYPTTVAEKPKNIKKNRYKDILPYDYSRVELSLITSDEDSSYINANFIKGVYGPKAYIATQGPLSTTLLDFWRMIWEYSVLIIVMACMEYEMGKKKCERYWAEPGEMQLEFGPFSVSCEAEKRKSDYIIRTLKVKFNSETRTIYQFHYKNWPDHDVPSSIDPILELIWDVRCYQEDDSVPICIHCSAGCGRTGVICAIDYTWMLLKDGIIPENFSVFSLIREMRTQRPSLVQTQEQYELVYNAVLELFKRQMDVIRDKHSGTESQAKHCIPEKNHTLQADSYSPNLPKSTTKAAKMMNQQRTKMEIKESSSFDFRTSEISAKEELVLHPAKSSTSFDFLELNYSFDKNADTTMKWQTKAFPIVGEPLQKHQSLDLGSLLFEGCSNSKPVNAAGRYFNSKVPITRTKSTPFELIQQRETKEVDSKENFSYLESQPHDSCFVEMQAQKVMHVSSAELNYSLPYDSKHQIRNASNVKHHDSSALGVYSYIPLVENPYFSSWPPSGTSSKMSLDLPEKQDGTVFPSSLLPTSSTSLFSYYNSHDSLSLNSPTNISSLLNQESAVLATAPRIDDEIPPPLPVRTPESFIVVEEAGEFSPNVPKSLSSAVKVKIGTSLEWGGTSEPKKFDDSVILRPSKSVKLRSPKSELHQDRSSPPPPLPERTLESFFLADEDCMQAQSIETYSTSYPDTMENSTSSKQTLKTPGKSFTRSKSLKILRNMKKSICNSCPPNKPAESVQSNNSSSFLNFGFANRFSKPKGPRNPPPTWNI

[4] = target: T2, G-protein coupled receptor 35; test: SAR Analysis for the identification of Selective Antagonists of ERK1/2 Activity in GPR35-Overexpressing U2OS Cells. [Related pubchem assays: 2079, 2058 ]; format: functional, cell-based
[5] = target: T3, Tyrosine-protein phosphatase non-receptor type 22; test: LYP (PTPN22) phosphatase inhibitor potency, SAR follow-up, biochemical, pCAP fluorogenic substrate, fluorescence, set 3 (AID 449727); format: functional
[6] = target: T4, Tyrosine-protein phosphatase non-receptor type 7 (Homo sapiens, UniProt P35236); test: HePTP (PTPN7) phosphatase inhibitor potency, SAR follow-up, biochemical, set 2 (AID 449736); format: functional
T4 sequence (P35236 whole entry): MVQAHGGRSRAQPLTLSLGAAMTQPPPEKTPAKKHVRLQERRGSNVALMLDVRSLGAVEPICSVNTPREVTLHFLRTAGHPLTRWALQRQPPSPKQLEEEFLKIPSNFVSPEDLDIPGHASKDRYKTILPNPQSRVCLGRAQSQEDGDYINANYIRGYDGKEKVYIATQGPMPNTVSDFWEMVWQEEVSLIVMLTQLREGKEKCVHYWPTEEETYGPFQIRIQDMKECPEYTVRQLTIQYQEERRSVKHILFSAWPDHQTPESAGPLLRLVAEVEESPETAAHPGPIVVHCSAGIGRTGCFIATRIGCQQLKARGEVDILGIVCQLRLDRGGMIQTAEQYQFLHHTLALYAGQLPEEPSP

[7] = target: G-protein coupled receptor 55 (Homo sapiens, UniProt Q9Y2T6); test: GPR55 antagonists, SAR follow-up, counter-screen for GPR35 antagonist project, imaging, image-based (AID 2397); format: functional
[8] = target: T5, Sphingosine 1-phosphate receptor 4 (Homo sapiens, UniProt O95977); test: S1P4 receptor antagonists, human, late-stage follow-up, cell-based, fluorescence, synthesized analogues (AID 2346); format: functional
T5 sequence (O95977 whole entry): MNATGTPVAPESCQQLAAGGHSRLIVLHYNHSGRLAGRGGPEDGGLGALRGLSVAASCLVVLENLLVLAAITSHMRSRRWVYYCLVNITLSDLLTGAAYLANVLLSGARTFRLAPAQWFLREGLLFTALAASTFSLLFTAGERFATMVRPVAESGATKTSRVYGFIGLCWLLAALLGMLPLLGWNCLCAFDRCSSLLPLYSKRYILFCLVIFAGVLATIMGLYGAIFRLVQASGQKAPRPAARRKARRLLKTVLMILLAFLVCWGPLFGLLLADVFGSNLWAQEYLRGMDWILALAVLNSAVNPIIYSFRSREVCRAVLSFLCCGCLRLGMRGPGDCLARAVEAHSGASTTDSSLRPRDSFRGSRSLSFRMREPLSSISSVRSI

[9] = target: Sphingosine 1-phosphate receptor 5 (Homo sapiens, UniProt Q9H228); test: Late stage counterscreen assay for S1P4 antagonists: Fluorescence dose response cell-based screening assay for antagonists of the Sphingosine 1-Phosphate Receptor 5 (S1P5). [Related pubchem assays (depositor defined):AID1510, AID1524, AID1692, AID1853, AID2332, AID489009, AID489017]; format: functional
[10] = target: Sphingosine 1-phosphate receptor 3 (Homo sapiens, UniProt Q99500); test: Late stage counterscreen assay for S1P4 antagonists: Fluorescence dose response cell-based screening assay for antagonists of the Sphingosine 1-Phosphate Receptor 3 (S1P3). [Related pubchem assays (depositor defined):AID1510, AID1524, AID1692, AID1853, AID2332, AID489009, AID489017]; format: functional
Sphingosine 1-phosphate receptor 3, sequence (Q99500 whole entry): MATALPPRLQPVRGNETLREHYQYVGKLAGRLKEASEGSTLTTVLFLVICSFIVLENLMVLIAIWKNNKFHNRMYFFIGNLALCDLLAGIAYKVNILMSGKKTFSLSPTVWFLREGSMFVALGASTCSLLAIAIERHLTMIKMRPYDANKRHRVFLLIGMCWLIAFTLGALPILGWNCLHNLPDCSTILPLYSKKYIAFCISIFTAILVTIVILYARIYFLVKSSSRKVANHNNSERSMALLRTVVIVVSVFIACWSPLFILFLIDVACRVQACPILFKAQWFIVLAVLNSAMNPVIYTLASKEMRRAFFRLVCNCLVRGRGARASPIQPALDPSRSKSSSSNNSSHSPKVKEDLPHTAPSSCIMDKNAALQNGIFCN

[11] = target: Sphingosine 1-phosphate receptor 2 (Homo sapiens, UniProt O95136); test: Late stage counterscreen assay for S1P4 antagonists: Fluorescence dose response cell-based screening assay for antagonists of the Sphingosine 1-Phosphate Receptor 2 (S1P2). [Related pubchem assays (depositor defined):AID1510, AID1524, AID1692, AID1853, AID2332, AID489009, AID489017]; format: functional
Sphingosine 1-phosphate receptor 2, sequence (O95136 whole entry): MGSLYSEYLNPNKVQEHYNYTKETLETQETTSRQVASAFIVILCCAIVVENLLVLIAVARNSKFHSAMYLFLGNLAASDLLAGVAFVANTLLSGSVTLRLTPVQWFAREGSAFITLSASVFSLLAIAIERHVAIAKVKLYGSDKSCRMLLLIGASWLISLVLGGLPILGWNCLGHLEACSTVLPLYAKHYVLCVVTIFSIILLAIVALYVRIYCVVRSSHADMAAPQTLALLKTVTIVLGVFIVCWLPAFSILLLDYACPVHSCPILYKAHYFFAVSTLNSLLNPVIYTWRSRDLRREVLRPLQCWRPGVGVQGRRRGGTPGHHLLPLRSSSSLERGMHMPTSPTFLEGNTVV

[12] = target: Sphingosine 1-phosphate receptor 1 (Homo sapiens, UniProt P21453); test: Late stage counterscreen assay for S1P4 antagonists: Fluorescence dose response cell-based screening assay for antagonists of the Sphingosine 1-Phosphate Receptor 1 (S1P1). [Related pubchem assays (depositor defined):AID1510, AID1524, AID1692, AID1853, AID2332, AID489009, AID489017]; format: functional
SUMO E1/E2 = SUMO E1/E2 (Homo sapiens, UniProt P63279+Q9UBE0+Q9UBT2); test: SAR analysis of SUMOylation using HTRF in an in-Vitro dose response assay. [Related pubchem assays (depositor defined):AID2006, AID2011, AID2018, AID2069, AID2658]; format: functional
[13] = target: T6, Voltage-gated N-type calcium channel alpha-1B subunit/Amyloid beta A4 precursor protein-binding family A member 1 (Homo sapiens, UniProt Q00975+Q02410); test: disruptors of Mint-PDZ/N-type channel peptide interaction – biochemical, HTRF, set 2, SAR follow-up (AID 434980); format: functional
T6 sequence (Q00975 whole entry): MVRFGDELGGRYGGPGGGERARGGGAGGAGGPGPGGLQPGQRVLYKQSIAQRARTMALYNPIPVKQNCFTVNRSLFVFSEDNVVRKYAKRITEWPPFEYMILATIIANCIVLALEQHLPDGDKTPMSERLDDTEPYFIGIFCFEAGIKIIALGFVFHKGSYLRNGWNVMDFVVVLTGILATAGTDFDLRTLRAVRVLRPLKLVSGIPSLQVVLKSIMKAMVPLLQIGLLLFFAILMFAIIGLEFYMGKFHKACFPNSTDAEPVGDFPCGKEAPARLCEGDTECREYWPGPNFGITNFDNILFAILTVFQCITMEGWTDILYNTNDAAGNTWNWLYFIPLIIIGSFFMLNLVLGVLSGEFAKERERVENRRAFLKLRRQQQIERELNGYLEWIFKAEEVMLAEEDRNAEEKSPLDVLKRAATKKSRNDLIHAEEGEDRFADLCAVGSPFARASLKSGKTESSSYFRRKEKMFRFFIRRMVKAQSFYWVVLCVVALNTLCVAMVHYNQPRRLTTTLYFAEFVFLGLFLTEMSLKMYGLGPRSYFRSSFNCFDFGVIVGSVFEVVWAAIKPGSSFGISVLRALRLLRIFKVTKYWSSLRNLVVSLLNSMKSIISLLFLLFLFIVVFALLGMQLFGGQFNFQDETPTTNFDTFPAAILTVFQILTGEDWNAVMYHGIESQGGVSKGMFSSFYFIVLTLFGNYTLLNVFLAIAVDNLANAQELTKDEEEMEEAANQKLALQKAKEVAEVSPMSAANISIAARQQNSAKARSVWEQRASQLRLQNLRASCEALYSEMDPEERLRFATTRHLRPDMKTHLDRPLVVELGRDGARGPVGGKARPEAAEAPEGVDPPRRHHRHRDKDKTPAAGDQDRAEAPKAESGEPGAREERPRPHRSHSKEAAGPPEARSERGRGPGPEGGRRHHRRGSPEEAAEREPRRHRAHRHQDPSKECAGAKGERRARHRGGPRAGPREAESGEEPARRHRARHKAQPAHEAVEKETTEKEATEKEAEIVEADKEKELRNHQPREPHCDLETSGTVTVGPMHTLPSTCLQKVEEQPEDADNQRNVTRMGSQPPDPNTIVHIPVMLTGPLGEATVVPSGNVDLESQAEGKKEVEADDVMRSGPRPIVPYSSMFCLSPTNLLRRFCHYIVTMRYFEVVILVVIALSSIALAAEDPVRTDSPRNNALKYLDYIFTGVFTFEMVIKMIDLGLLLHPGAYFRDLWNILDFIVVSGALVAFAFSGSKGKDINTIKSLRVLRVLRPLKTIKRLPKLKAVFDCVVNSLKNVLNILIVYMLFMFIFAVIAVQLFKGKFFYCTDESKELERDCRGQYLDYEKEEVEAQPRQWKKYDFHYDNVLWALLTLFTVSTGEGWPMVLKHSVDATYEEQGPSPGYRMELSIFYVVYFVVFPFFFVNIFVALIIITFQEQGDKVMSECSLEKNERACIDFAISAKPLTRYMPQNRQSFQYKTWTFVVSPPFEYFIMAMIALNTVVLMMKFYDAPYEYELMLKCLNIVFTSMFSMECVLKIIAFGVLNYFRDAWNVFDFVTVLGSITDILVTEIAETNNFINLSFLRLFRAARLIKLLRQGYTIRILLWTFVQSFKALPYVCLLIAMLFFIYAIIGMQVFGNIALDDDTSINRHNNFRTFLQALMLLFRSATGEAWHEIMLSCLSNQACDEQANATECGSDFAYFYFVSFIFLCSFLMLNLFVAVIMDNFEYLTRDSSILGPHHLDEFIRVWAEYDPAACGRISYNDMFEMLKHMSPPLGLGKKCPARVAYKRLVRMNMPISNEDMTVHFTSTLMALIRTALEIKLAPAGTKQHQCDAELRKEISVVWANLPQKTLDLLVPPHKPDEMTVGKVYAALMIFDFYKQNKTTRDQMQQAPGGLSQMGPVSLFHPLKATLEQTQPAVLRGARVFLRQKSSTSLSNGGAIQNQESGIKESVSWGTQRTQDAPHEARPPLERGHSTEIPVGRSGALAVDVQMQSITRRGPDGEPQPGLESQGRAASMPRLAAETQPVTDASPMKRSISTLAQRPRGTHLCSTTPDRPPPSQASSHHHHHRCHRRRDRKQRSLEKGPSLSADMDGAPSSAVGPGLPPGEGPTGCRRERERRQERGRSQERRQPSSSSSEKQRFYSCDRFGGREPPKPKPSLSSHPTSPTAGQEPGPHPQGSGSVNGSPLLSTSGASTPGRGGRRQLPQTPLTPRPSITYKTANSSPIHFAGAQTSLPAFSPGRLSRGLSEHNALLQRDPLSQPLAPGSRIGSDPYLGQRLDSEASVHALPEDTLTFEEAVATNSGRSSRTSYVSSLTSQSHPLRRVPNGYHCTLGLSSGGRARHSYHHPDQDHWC
T6 sequence (Q02410 whole entry): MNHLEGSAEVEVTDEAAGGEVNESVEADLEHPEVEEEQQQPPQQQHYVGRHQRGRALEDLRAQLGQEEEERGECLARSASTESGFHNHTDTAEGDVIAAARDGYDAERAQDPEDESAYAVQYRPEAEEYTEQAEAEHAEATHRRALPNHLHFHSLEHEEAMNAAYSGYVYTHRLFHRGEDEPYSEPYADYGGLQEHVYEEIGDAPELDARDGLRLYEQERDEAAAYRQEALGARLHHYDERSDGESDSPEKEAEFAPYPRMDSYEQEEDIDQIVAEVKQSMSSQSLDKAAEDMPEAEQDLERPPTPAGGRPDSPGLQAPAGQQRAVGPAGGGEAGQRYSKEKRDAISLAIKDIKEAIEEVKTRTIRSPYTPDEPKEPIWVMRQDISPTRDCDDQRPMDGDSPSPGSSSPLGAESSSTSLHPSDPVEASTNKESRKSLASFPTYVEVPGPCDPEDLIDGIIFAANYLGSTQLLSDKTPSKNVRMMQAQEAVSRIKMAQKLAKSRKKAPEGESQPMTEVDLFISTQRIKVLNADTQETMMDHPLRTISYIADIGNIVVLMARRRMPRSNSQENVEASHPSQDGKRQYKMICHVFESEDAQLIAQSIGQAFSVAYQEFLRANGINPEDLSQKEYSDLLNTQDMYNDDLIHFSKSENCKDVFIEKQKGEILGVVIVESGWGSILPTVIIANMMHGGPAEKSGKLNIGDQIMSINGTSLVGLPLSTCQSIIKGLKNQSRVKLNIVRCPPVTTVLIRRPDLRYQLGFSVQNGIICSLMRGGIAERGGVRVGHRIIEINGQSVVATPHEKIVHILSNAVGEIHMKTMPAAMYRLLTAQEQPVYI

[14] = target: T6, Voltage-gated N-type calcium channel alpha-1B subunit/Amyloid beta A4 precursor protein-binding family A member 1; test: disruptors of Mint-PDZ/N-type channel peptide interaction – biochemical, HTRF, SAR follow-up (AID 2489); format: functional
[15] = target: Induced myeloid leukemia cell differentiation protein Mcl-1 (Homo sapiens, UniProt Q07820); format: functional
Induced myeloid leukemia cell differentiation protein Mcl-1, sequence (Q07820 whole entry): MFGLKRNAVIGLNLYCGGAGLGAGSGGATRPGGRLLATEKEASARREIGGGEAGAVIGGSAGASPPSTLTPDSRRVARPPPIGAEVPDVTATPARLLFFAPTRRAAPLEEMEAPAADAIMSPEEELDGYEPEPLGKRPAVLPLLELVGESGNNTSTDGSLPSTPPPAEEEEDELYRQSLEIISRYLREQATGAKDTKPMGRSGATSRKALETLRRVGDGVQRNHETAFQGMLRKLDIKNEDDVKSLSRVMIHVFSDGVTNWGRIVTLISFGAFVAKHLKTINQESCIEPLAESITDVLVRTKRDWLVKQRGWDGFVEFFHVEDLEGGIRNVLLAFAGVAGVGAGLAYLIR

[16] = target: T7, Apoptotic protease-activating factor 1 (Homo sapiens, UniProt O14727); test: activation of Apaf-1 mediated apoptosis – fluorescent, uHTS hits, dose response (AID 588554); format: functional
T7 sequence (O14727 whole entry): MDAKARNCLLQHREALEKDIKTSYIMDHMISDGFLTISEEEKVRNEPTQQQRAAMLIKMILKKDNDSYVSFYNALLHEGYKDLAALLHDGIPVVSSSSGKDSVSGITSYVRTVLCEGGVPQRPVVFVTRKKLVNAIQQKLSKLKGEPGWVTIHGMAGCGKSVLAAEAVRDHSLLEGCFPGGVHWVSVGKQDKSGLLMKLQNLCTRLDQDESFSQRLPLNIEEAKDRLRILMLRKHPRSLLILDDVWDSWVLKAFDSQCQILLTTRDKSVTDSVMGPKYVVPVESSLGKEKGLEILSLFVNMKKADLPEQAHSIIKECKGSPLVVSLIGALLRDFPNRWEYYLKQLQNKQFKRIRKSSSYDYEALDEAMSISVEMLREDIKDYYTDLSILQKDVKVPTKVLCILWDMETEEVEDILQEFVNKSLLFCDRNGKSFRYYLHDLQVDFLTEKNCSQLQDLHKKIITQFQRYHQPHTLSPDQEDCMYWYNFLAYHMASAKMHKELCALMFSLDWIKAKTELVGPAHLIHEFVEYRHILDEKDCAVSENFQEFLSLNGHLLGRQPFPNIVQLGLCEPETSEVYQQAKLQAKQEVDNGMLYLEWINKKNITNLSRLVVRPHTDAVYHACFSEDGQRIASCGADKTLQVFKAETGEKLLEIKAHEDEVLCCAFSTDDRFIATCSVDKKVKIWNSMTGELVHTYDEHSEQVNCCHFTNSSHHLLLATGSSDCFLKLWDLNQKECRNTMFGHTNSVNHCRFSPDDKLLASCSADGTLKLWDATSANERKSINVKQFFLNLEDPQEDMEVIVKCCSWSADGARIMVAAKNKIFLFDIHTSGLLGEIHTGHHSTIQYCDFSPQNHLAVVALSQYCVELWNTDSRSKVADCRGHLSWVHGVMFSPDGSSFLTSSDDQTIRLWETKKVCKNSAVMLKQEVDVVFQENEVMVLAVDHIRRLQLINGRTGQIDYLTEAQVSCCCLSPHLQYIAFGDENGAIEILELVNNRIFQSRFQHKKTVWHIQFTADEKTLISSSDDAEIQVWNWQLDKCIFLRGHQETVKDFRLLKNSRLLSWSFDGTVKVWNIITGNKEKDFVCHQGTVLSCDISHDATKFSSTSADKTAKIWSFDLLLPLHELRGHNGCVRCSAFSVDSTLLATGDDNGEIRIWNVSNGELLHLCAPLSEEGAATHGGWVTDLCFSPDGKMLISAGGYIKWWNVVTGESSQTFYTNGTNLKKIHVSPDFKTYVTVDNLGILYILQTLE

Streptococcus = test: Group A Streptococcus viability loss, dose response, counter-screen for streptokinase expression inhibitor project, luminescence, BacTiterGlo (AID 1915); format: functional, organism-based;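 further: potency for reduction of bacterial viability or growth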
[17] = system: Streptococcus sp. 'group A'; test: growth inhibition of control SK(-) GAS strain, dose response, counter-screen for streptokinase expression inhibitor project, luminescence, kanamycin, BacTiterGlo, confirmation (AID 1900); format: functional, organism-based
Prothrombin = Prothrombin (Bos taurus, UniProt P00735); test: thrombin inhibition, dose response, biochemical, fluorescence polarization, uHTS hits (AID 602369); format: functional
[18] = target: 26S proteasome non-ATPase regulatory subunit 14 (Homo sapiens, UniProt O00487); test: inhibition of proteasome subunit RPN11 – biochemical, fluorescence polarization, uHTS hits, confirmation (AID 602368); format: functional
26S proteasome non-ATPase regulatory subunit 14, sequence (O00487 whole entry): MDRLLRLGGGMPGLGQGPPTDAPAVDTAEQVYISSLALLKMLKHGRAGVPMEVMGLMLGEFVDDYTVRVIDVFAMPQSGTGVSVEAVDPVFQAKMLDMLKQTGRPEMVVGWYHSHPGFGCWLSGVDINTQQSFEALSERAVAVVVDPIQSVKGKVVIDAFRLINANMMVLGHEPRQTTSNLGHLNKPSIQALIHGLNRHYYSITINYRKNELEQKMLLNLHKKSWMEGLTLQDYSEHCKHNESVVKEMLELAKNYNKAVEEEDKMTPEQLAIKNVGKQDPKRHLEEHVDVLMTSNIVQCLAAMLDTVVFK

[19] = target: 72 kDa type IV collagenase (Homo sapiens, UniProt P08253); test: Dose Response validation of uHTS RPN11 inhibitor hits using a MMP-2 Fluorescence assay.; format: functional

O=C(CCCN1C(=O)/C(=C\c2ccccc2)SC1=S)Nc1ccc(C(=O)O)cc1
inactive: IC50 [7] > 32 µM
active: IC50 [1] 15.8 µM | IC50 [2] 1.16 µM | IC50 [3] 72.2 µM | IC50 [4] 3.29 µM | IC50 [5] 79.5 µM | IC50 [6] 1.89 µM

CCc1cccc(C)c1NC(=O)c1ccc(-c2ccccc2Cl)o1
inactive: IC50 [9] > 25 µM | IC50 [10] > 25 µM | IC50 [11] > 25 µM | IC50 [12] > 25 µM
active: IC50 [8] 269 nM

CN(Cc1ccc(F)cc1)C(=O)COC(=O)c1cc(-c2ccco2)nc2ccccc12
active: IC50 (SUMO E1/E2) 2.41 µM | IC50 [13] 11.5 µM | IC50 [14] 19.1 µM

O=C(O)CCCN1C(=O)/C(=C\c2ccc(-c3nc4ccccc4s3)o2)SC1=S
inactive: IC50 [19] > 100 µM
active: IC50 [15] 1.38 µM | EC50 [16] 5.12 µM | EC50 (Streptococcus) 7.32 µM | EC50 [17] 3.67 µM | IC50 (Prothrombin) 70.3 µM | IC50 [18] 5.31 µM
